According to PubChem BioAssay AID1919000 (Molecular Pharmacology Branch, DTP, NCI, 2023):
Values joined by “and” are separate entries in the source; they are usually repeats but may differ in a detail not shown here. Equal values may be shown once.

System: 653999-131-R-J2-PDC complex spheroids, growth % test/control
Experiment: Anticancer human tumor 653999-131-R-J2-PDC patient-derived lung adenocarcinoma cell line growth inhibition [AhR]
Conditions: for viability, T/C: stronger effect = lower value; active means viability on the fitted dose curve at most 10% of control; inactive means the rest
Procedure, shortened: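 Agents were dosed in half-log steps down from roughly clinical Cmax, or from 10 microM where Cmax was unknown, alone and with AhR antagonists. Read-out: percent test/control growth of tumor spheroids containing HUVEC and MSC stromal cells.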

[1] = curve of first compound, second compound 0.1 µM
[2] = curve of first compound, second compound 0.316 µM
[3] = curve of first compound, second compound 1 µM
[4] = curve of first compound, second compound 3.16 µM
[5] = curve of first compound, second compound 10 µM
[6] = second compound 0.1 µM, first compound 0.0316 µM
[7] = second compound 0.1 µM, first compound 0.1 µM
[8] = second compound 0.1 µM, first compound 0.316 µM
[9] = second compound 0.1 µM, first compound 1 µM
[10] = second compound 0.1 µM, first compound 3.16 µM
[11] = second compound 0.1 µM, first compound 10 µM
[12] = second compound 0.316 µM, first compound 0.0316 µM
[13] = second compound 0.316 µM, first compound 0.1 µM
[14] = second compound 0.316 µM, first compound 0.316 µM
[15] = second compound 0.316 µM, first compound 1 µM
[16] = second compound 0.316 µM, first compound 3.16 µM
[17] = second compound 0.316 µM, first compound 10 µM
[18] = second compound 1 µM, first compound 0.0316 µM
[19] = second compound 1 µM, first compound 0.1 µM
[20] = second compound 1 µM, first compound 0.316 µM
[21] = second compound 1 µM, first compound 1 µM
[22] = second compound 1 µM, first compound 3.16 µM
[23] = second compound 1 µM, first compound 10 µM
[24] = second compound 3.16 µM, first compound 0.0316 µM
[25] = second compound 3.16 µM, first compound 0.1 µM
[26] = second compound 3.16 µM, first compound 0.316 µM
[27] = second compound 3.16 µM, first compound 1 µM
[28] = second compound 3.16 µM, first compound 3.16 µM
[29] = second compound 3.16 µM, first compound 10 µM
[30] = second compound 10 µM, first compound 0.0316 µM
[31] = second compound 10 µM, first compound 0.1 µM
[32] = second compound 10 µM, first compound 0.316 µM
[33] = second compound 10 µM, first compound 1 µM
[34] = second compound 10 µM, first compound 3.16 µM
[35] = second compound 10 µM, first compound 10 µM
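Further: spheroids exposed to agents for seven days.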
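Wherever viability, T/C is given: 100% = DMSO vehicle control viability.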

CCN(c1cc(-c2ccc(CN3CCOCC3)cc2)cc(C(=O)NCc2c(C)cc(C)[nH]c2=O)c1C)C1CCOCC1 + CC(CO)NC(=O)c1cc(-c2ccc(Cl)cc2)nn(-c2cnn(C)c2)c1=O
> 3000 nM: IC50 [1] | IC50 [2] | IC50 [3] | IC50 [4] | IC50 [5]
inactive: viability, T/C (second compound 0.1 µM, first compound 0.00949 µM) 112% | viability, T/C (second compound 0.1 µM, first compound 0.03 µM) 97.6% | viability, T/C (second compound 0.1 µM, first compound 0.0949 µM) 120% | viability, T/C (second compound 0.1 µM, first compound 0.3 µM) 95.9% | viability, T/C (second compound 0.1 µM, first compound 0.949 µM) 93.9% | viability, T/C (second compound 0.1 µM, first compound 3 µM) 90% | viability, T/C (second compound 0.316 µM, first compound 0.00949 µM) 119% | viability, T/C (second compound 0.316 µM, first compound 0.03 µM) 107% | viability, T/C (second compound 0.316 µM, first compound 0.0949 µM) 101% | viability, T/C (second compound 0.316 µM, first compound 0.3 µM) 94.6% | viability, T/C (second compound 0.316 µM, first compound 0.949 µM) 101% | viability, T/C (second compound 0.316 µM, first compound 3 µM) 94.1% | viability, T/C (second compound 1 µM, first compound 0.00949 µM) 115% | viability, T/C (second compound 1 µM, first compound 0.03 µM) 134% | viability, T/C (second compound 1 µM, first compound 0.0949 µM) 115% | viability, T/C (second compound 1 µM, first compound 0.3 µM) 114% | viability, T/C (second compound 1 µM, first compound 0.949 µM) 105% | viability, T/C (second compound 1 µM, first compound 3 µM) 102% | viability, T/C (second compound 3.16 µM, first compound 0.00949 µM) 112% | viability, T/C (second compound 3.16 µM, first compound 0.03 µM) 113% | viability, T/C (second compound 3.16 µM, first compound 0.0949 µM) 119% | viability, T/C (second compound 3.16 µM, first compound 0.3 µM) 114% | viability, T/C (second compound 3.16 µM, first compound 0.949 µM) 106% | viability, T/C (second compound 3.16 µM, first compound 3 µM) 99.6% | viability, T/C (second compound 10 µM, first compound 0.00949 µM) 111% | viability, T/C (second compound 10 µM, first compound 0.03 µM) 117% | viability, T/C (second compound 10 µM, first compound 0.0949 µM) 130% | viability, T/C (second compound 10 µM, first compound 0.3 µM) 114% | viability, T/C (second compound 10 µM, first compound 0.949 µM) 105% | viability, T/C (second compound 10 µM, first compound 3 µM) 96.1%

Nc1ccccc1NC(=O)c1ccc(CNC(=O)OCc2cccnc2)cc1 + Cc1cncc(-c2nc(NCCc3c[nH]c4ccccc34)c3ncn(C(C)C)c3n2)c1
388 nM: IC50 [5]
2930 nM: IC50 [1]
active: viability, T/C [35] 4.53%
inactive: viability, T/C [6] 85.2% | viability, T/C [7] 86.2% | viability, T/C [8] 88.8% | viability, T/C [9] 61.4% | viability, T/C [10] 52% | viability, T/C [11] 15.9% | viability, T/C [12] 91.1% | viability, T/C [13] 85.9% | viability, T/C [14] 84.3% | viability, T/C [15] 57.2% | viability, T/C [16] 56.6% | viability, T/C [17] 13.2% | viability, T/C [18] 88.3% | viability, T/C [19] 86.7% | viability, T/C [20] 69.3% | viability, T/C [21] 65.7% | viability, T/C [22] 55.6% | viability, T/C [23] 13.3% | viability, T/C [24] 93% | viability, T/C [25] 113% | viability, T/C [26] 88.4% | viability, T/C [27] 57.7% | viability, T/C [28] 55.4% | viability, T/C [29] 8.91% | viability, T/C [30] 66.7% | viability, T/C [31] 46.9% | viability, T/C [32] 45.3% | viability, T/C [33] 44.3% | viability, T/C [34] 36.6%
2710 nM: IC50 [4]
2890 nM: IC50 [2]
3060 nM: IC50 [3]

CCc1c2c(nc3ccc(O)cc13)-c1cc3c(c(=O)n1C2)COC(=O)[C@]3(O)CC
14.6 nM and 22.1 nM and 9.27 nM: IC50 (curve of compound)
inactive: viability, T/C (compound 0.000949 µM) 79% and 89.9% and 76.4% | viability, T/C (compound 0.003 µM) 75.3% and 80.9% and 76.6% | viability, T/C (compound 0.00949 µM) 54.4% and 59.1% and 45.1% | viability, T/C (compound 0.03 µM) 38.8% and 44.1% and 33.3% | viability, T/C (compound 0.0949 µM) 29.4% and 35.4% and 27.7% | viability, T/C (compound 0.3 µM) 20.6% and 19.6% and 16.8%

Nc1ccn(C2OC(CO)C(O)C2(F)F)c(=O)n1 (configuration not stated) + CC(CO)NC(=O)c1cc(-c2ccc(Cl)cc2)nn(-c2cnn(C)c2)c1=O
6310 nM: IC50 [5]
1600 nM: IC50 [4]
inactive: viability, T/C [6] 65.4% | viability, T/C [7] 66.8% | viability, T/C [8] 61.2% | viability, T/C [9] 48% | viability, T/C [10] 48.4% | viability, T/C [11] 42.9% | viability, T/C [12] 73.9% | viability, T/C [13] 69.8% | viability, T/C [14] 62.2% | viability, T/C [15] 58.4% | viability, T/C [16] 46.5% | viability, T/C [17] 45.3% | viability, T/C [18] 67.5% | viability, T/C [19] 69.9% | viability, T/C [20] 58.6% | viability, T/C [21] 58.1% | viability, T/C [22] 50.4% | viability, T/C [23] 47.1% | viability, T/C [24] 78.1% | viability, T/C [25] 74% | viability, T/C [26] 63.7% | viability, T/C [27] 55.7% | viability, T/C [28] 42.7% | viability, T/C [29] 40.9% | viability, T/C [30] 96.5% | viability, T/C [31] 76.8% | viability, T/C [32] 64.4% | viability, T/C [33] 58% | viability, T/C [34] 51.7% | viability, T/C [35] 48.4%
4740 nM: IC50 [3]
3060 nM: IC50 [2]
1940 nM: IC50 [1]

NS(=O)(=O)OCC1CC(n2ccc3c(NC4CCc5ccccc54)ncnc32)CC1O (configuration not stated) + Cc1ccccc1N=Nc1ccc(NC(=O)c2ccnn2C)c(C)c1
inactive: viability, T/C [6] 111% | viability, T/C [7] 120% | viability, T/C [8] 118% | viability, T/C [9] 124% | viability, T/C [10] 88.9% | viability, T/C [11] 64.7% | viability, T/C [12] 114% | viability, T/C [13] 105% | viability, T/C [14] 123% | viability, T/C [15] 129% | viability, T/C [16] 72.7% | viability, T/C [17] 61.3% | viability, T/C [18] 115% | viability, T/C [19] 119% | viability, T/C [20] 124% | viability, T/C [21] 124% | viability, T/C [22] 63.3% | viability, T/C [23] 61.4% | viability, T/C [24] 125% | viability, T/C [25] 109% | viability, T/C [26] 142% | viability, T/C [27] 93.4% | viability, T/C [28] 61.8% | viability, T/C [29] 62.3% | viability, T/C [30] 129% | viability, T/C [31] 118% | viability, T/C [32] 115% | viability, T/C [33] 63.7% | viability, T/C [34] 56.7% | viability, T/C [35] 60%
> 10000 nM: IC50 [1] | IC50 [2] | IC50 [3] | IC50 [4] | IC50 [5]

Cn1ncnc1C1c2n[nH]c(=O)c3cc(F)cc(c23)NC1c1ccc(F)cc1 (configuration not stated) + Cc1ccccc1N=Nc1ccc(NC(=O)c2ccnn2C)c(C)c1
inactive: viability, T/C (second compound 0.1 µM, first compound 0.000316 µM) 106% | viability, T/C (second compound 0.1 µM, first compound 0.001 µM) 84.6% | viability, T/C (second compound 0.1 µM, first compound 0.00316 µM) 102% | viability, T/C (second compound 0.1 µM, first compound 0.01 µM) 92.3% | viability, T/C [6] 99.9% | viability, T/C [7] 98% | viability, T/C (second compound 0.316 µM, first compound 0.000316 µM) 94.3% | viability, T/C (second compound 0.316 µM, first compound 0.001 µM) 111% | viability, T/C (second compound 0.316 µM, first compound 0.00316 µM) 104% | viability, T/C (second compound 0.316 µM, first compound 0.01 µM) 95% | viability, T/C [12] 91.5% | viability, T/C [13] 92.8% | viability, T/C (second compound 1 µM, first compound 0.000316 µM) 103% | viability, T/C (second compound 1 µM, first compound 0.001 µM) 96.7% | viability, T/C (second compound 1 µM, first compound 0.00316 µM) 104% | viability, T/C (second compound 1 µM, first compound 0.01 µM) 108% | viability, T/C [18] 93.3% | viability, T/C [19] 95.6% | viability, T/C (second compound 3.16 µM, first compound 0.000316 µM) 93.4% | viability, T/C (second compound 3.16 µM, first compound 0.001 µM) 105% | viability, T/C (second compound 3.16 µM, first compound 0.00316 µM) 106% | viability, T/C (second compound 3.16 µM, first compound 0.01 µM) 94.9% | viability, T/C [24] 101% | viability, T/C [25] 103% | viability, T/C (second compound 10 µM, first compound 0.000316 µM) 86.2% | viability, T/C (second compound 10 µM, first compound 0.001 µM) 104% | viability, T/C (second compound 10 µM, first compound 0.00316 µM) 106% | viability, T/C (second compound 10 µM, first compound 0.01 µM) 95% | viability, T/C [30] 109% | viability, T/C [31] 87.3%
> 100 nM: IC50 [1] | IC50 [2] | IC50 [3] | IC50 [4] | IC50 [5]
